Reference: US20230058623A1, “NOVEL HETEROARYL-TRIAZOLE COMPOUNDS AS PESTICIDES” (Bayer Aktiengesellschaft, priority 2019, published 2023)

Tests used:
Assay type in all cases: in vivo
[1] = tested on: Rhipicephalus (Boophilus) microplus larvae (strain Parkhurst, resistant against synthetic pyrethroids); assay: Rhipicephalus (Boophilus) microplus in-vitro contact test, larval cattle tick; conditions: after 48 hours, read-out: activity (efficacy: larvae dead or moribund); for pest or weed control at 1 µg/cm2, 100 g/ha: application rate 1 μg/cm^2 (=100 g/ha); for pest or weed control at 5 µg/cm2, 500 g/ha: application rate 5 μg/cm^2 (=500 g/ha)
Method in brief: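 Pyrethroid-resistant Parkhurst larvae, 20–50 per tube, were kept 48 h at 27 °C and 85% relative humidity in glass tubes whose inner walls carried a dried acetone film of compound (900 ppm giving 5 μg/cm^2). Dead or moribund larvae, judged by loss of negative geotactic behavior, set percent efficacy.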

[2] = tested on: adult cat fleas (Ctenocephalides felis); assay: Ctenocephalides felis in-vitro contact test, adult cat flea; conditions: application rate 5 μg/cm^2 (=500 g/ha), after 48 hours, read-out: activity (efficacy: fleas dead or moribund)
Method in brief: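 After 48 h of room-temperature exposure in tubes whose walls carried dried compound residue (5 μg/cm^2, from 900 ppm acetone solution), adult cat fleas (5-10 per tube) were heat-challenged at 45-50° C up to 5 min. Fleas unable to climb away were counted dead or moribund, expressed as % efficacy.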

[3] = tested on: green peach aphid (Myzus persicae); assay: Myzus persicae spray test; conditions: foliar, 120 h, application rate 100 g/ha, after 5 days, Chinese cabbage leaf disks, read-out: activity (mortality)
Method in brief: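 Percent kill was recorded 5 days after spraying. Test solutions, prepared with solvent and diluted in 1000 ppm emulsifier water, were applied to Brassica pekinensis leaf disks carrying mixed-instar green peach aphids.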

[4] = tested on: larvae of the southern green stink bug (Nezara viridula); assay: Nezara viridula spray test; conditions: 96 h, after 4 days, barley plants; for mortality at 100 g/ha: application rate 100 g/ha
Method in brief: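 Barley plants sprayed with the active compound in emulsifier-containing water, then infested with stink bug larvae. Mortality scored in % after 4 days, with 100% meaning all insects killed.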

[5] = tested on: fall armyworm larvae (Spodoptera frugiperda); assay: Spodoptera frugiperda spray test; conditions: 168 h, application rate 100 g/ha, after 7 days, maize leaf sections
Method in brief: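 Percent larval kill read at day 7 on Zea mays leaf pieces that were spray-treated and, after drying, infested. Spray preparations made by dilution with emulsifier-containing water (1000 ppm).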

[6] = tested on: adult mosquitoes Aedes aegypti strain MONHEIM; assay: Aedes aegypti test (AEDSAE surface treatment & contact assay); conditions: 24 hours after contact, read-out: efficacy (mortality); for mortality at 4 mg/m2: surface concentration 4 mg/m^2, exposure 30 minutes; for mortality at 20 mg/m2: surface concentration 20 mg/m^2, exposure 30 minutes
Method in brief: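 Compound in acetone (2 mg/ml) with 2000 ppm RME dried onto glazed tile; adults exposed to the treated surface for 30 min. Percent mortality scored 24 h after contact.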

[7] = tested on: adult flies Musca domestica strain WHO-N; assay: Musca domestica test (MUSCDO surface treatment & contact assay); conditions: 24 hours after contact, read-out: efficacy (mortality); for mortality at 4 mg/m2: surface concentration 4 mg/m^2, exposure 30 minutes; for mortality at 20 mg/m2: surface concentration 20 mg/m^2, exposure 30 minutes
Method in brief: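 Compound dissolved at 2 mg/ml in acetone with 2000 ppm RME, applied to glazed tile and dried; adult flies exposed on the surface for 30 min. Percent mortality scored 24 h after contact.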

[8] = tested on: adult unfed cat fleas (Ctenocephalides felis); assay: Ctenocephalides felis oral test; conditions: 48 h, read-out: activity (mortality)
Method in brief: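 About 20 adult unfed cat fleas fed through parafilm on citrated cattle blood containing compound (from a DMSO concentrate). Blood held at 37° C, fleas at room temperature. Mortality in % scored after 2 days.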

SMILES	pest or weed control at 1 µg/cm2, 100 g/ha [1]	pest or weed control at 5 µg/cm2, 500 g/ha [1]	pest or weed control at 5 µg/cm2 [2]	mortality at 100 g/ha [3]	mortality at 500 g/ha ([4]; application rate 500 g/ha, read-out: activity (mortality))	mortality at 100 g/ha [5]	mortality at 4 mg/m2 [6]	mortality at 20 mg/m2 [6]	mortality at 4 mg/m2 [7]	mortality at 20 mg/m2 [7]	mortality at 100 ppm [8]	mortality at 100 g/ha [4]
Cc1nc([C@H](C)NC(=O)c2cc(C(F)(F)F)cc(C(F)(F)F)c2)n(-c2ccc(C(=O)N3CCS(=O)(=O)CC3)cn2)n1 [Example I-76]	100%	100%	100%	90%	100%	100%	80 to 100%	80 to 100%	80 to 100%	80 to 100%		
C[C@H](NC(=O)c1cc(Cl)cc(C(F)(F)F)c1)c1ncnn1-c1ccc(C(=O)N2CCSCC2)cn1 [Example I-36]	100%	100%	100%	100%			80 to 100%	80 to 100%	80 to 100%	80 to 100%	100%	100%
C[C@H](NC(=O)c1cc(C(F)(F)F)cc(C(F)(F)F)c1)c1ncnn1-c1ccc(C(=O)N2C[C@H](C)O[C@@H](C)C2)cn1 [Example I-94]	100%	100%	100%	100%		100%	80 to 100%	80 to 100%	80 to 100%	80 to 100%	100%	100%
Cc1nc([C@H](C)NC(=O)c2cc(C(F)(F)F)cc(C(F)(F)F)c2)n(-c2ncc(C(=O)N3CCOCC3)s2)n1 [Example I-4]	100%	100%	80%	90%		100%		80 to 100%	80 to 100%		100%	
COC1CN(C(=O)c2ccc(-n3ncnc3[C@H](C)NC(=O)c3cc(C(F)(F)F)cc(C(F)(F)F)c3)nc2)C1 [Example I-15]	100%	100%	100%	90%		100%		80 to 100%		80 to 100%	100%	
Cc1nc([C@H](C)NC(=O)c2cc(Cl)cc(C(F)(F)F)c2)n(-c2ccc(C(=O)N3CC(C)OC(C)C3)cn2)n1 (some centres unmarked) [Example I-29]	100%	100%	100%	90%		83%	80 to 100%	80 to 100%		80 to 100%	100%	90%
C[C@@H]1CN(C(=O)c2ccc(-n3ncnc3[C@H](C)NC(=O)c3cc(OC(F)(F)F)cc(C4CC4)c3)nc2)C[C@H](C)O1 [Example I-114]	100%	100%	100%	100%		100%		80 to 100%	80 to 100%	80 to 100%	100%	
C[C@@H]1CN(C(=O)c2ccc(-n3ncnc3[C@H](C)NC(=O)c3cc(C(F)(F)F)cc(C(F)(F)F)c3)nc2)CCO1 [Example I-69]	100%	100%	100%	90%		100%		80 to 100%	80 to 100%	80 to 100%		
